Data published in publication PMC12371494, “Discovery of YTHDF2 Ligands by Fragment-Based Design” (ACS Bio & Med Chem Au, 2025).
Where “and” joins values, the source holds several entries; their conditions need not be identical. Equal values may be shown once.

Legend:
[1] = molecular target: T1, GST-YTHDF2 (Homo sapiens, UniProt Q9Y5A9); assay: HTRF-based binding assay, competition with m6A-oligoRNA, DF2; details: for Single-dose residual signal at 100 µM, DF2: HTRF, 100 µM compound, normalized; for LE (ligand efficiency, DF2): LE = -RT ln IC50/HAC from HTRF IC50; for IC50: dose-response, competitor m6A-oligoRNA, read-out: DF2 IC50 (HTRF assay); for Improvement of HTRF IC50 compared to fragment 14: HTRF DF2
T1 construct: made in house
T1 sequence (Q9Y5A9 1-579): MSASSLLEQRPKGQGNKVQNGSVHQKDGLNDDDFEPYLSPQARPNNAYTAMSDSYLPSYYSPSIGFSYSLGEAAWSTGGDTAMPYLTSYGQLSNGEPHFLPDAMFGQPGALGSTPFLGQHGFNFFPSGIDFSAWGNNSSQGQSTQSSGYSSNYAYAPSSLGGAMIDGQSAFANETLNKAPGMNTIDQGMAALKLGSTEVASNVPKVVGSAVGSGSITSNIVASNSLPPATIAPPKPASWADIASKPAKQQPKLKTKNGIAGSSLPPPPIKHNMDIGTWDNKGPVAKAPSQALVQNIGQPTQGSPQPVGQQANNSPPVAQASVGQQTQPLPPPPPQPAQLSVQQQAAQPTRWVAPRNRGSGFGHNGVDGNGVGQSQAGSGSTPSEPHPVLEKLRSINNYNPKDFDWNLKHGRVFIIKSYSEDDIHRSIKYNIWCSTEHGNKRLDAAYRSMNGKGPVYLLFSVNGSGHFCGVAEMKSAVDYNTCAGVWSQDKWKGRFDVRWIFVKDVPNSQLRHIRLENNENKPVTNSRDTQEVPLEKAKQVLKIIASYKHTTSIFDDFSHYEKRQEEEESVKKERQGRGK

[2] = molecular target: T2, YTHDC2 (Homo sapiens, UniProt Q9H6S0); assay: DNA-fluorescence polarization (FP) competition assay, DC2; format: binding; details: for Kd: Cheng-Prusoff from FP IC50, probe Kd 7 nM, two biological replicates; for Selectivity DF2 over DC2 (Kd ratio DC2/DF2): FP Kd values
T2 construct: YTH domain of YTHDC2 (residues 1285–1424, cloned into the pGEX-6P-1 vector); made in house; host or cells: Rosetta (DE3) cells (E. coli)
T2 sequence (Q9H6S0 1285-1424): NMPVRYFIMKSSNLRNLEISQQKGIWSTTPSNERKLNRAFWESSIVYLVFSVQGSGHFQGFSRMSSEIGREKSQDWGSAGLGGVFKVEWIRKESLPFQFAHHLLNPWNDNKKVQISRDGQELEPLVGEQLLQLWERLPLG
Description: The binding affinity for DC1 could not be evaluated by HTRF because of interference of the compounds with the assay, which has a smaller assay window when performed with DC1 compared to the DF proteins. Thus, the FP assay was used to evaluate binding to DC1 and DC2.
The N-terminally GST-tagged YTH domain of YTHDC2 (residues 1285–1424, cloned into the pGEX-6P-1 vector) was overexpressed in Rosetta (DE3) cells grown overnight at 20 °C following induction with 0.4 mM isopropyl-β-D-thiogalactopyranoside (IPTG) at an OD600 of 0.8. The cells were harvested and resuspended in a lysis buffer containing 100 mM Tris–HCl (pH 8.0) and 500 mM NaCl. After cell lysis, the lysate was clarified by centrifugation at 48,000g for 1 h, and the soluble proteins were loaded onto a column packed with Glutathione Sepharose 4B (GE Healthcare), then eluted with 20 mM reduced glutathione in lysis buffer. Finally, a size-exclusion chromatography step (HiLoad 16/600 Superdex 200 pg column, GE Healthcare) was performed to further purify the protein in 20 mM Tris–HCl (pH 7.4) and 150 mM NaCl.
For fluorescence polarization (FP) experiments, a 5′-fluorescein-labeled m^6A-DNA probe (5′-FAM-[…](m6A)-CTAAGCT-3′) was synthesized by Microsynth AG.
The final concentration of the fluorescein-labeled DNA was kept constant at 3 nM. For YTHDC2 measurements, the protein concentration was set to 25 nM, while for YTHDF2 measurements, it was set to 10 nM, and for YTHDC1, it was set at 15 nM. The compound concentration was serially diluted to obtain the dose–response curve. The competition experiments were conducted in a final volume of 20 μL in a buffer containing 20 mM Tris–HCl (pH 7.4), 150 mM NaCl, and 0.01% bovine serum albumin (BSA), using a 384-well black flat-bottomed microplate (Corning 3575).
After incubating the mixture for 1 h, the anisotropy values were measured using a Tecan SPARK plate reader with 485/20 nm excitation and 535/25 nm emission polarization filters, suitable for fluorescein, at 25 °C. To obtain the equilibrium dissociation constant (K d), the IC50 values were first derived by fitting a dose–response curve to the data using nonlinear regression analysis in GraphPad Prism. These IC50 values were then converted to K d by using the Cheng–Prusoff equation: Kd=IC50/1+[L]/Kdprobe
IC50 is the observed value from FP assay, [L] is the probe concentration used, and K d ^probe is the binding affinity of probe for the target.

[3] = molecular target: T3, GST-YTHDF1 (Homo sapiens, UniProt Q9BYJ9); assay: HTRF-based binding assay, DF1; details: for Single-dose residual signal at 100 µM, DF1: 100 µM compound, normalized; for IC50: dose-response
T3 construct: made in house
T3 sequence (Q9BYJ9 1-559): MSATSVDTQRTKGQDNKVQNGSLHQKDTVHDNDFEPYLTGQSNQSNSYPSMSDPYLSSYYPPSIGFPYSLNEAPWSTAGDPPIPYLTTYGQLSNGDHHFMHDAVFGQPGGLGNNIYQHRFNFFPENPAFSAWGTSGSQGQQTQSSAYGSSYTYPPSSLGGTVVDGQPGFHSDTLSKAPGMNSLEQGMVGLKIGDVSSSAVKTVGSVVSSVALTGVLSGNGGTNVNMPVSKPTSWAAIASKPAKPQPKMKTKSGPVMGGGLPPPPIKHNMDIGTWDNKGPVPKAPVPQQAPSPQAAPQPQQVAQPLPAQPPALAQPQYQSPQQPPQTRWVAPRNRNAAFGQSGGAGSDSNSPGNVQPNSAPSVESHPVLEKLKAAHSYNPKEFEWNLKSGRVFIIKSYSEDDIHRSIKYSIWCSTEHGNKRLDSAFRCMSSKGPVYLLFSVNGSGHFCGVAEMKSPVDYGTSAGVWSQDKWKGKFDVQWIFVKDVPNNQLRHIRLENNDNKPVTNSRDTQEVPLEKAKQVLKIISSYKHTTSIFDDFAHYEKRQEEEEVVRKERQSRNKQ
Description: The HTRF-based assay was employed to evaluate the selectivity of the series against other DF proteins.
A dose–response experiment on DF1 and DF3 was conducted for compounds 17, 18, 23, and 27 (Figure S5). Compounds 17, 18, and 27 are active on three DF proteins. […] In contrast, compound 23 is selective for DF2, with residual signals (at the highest employed concentration of 62.5 μM) of 51 and 87% for DF1 and DF3, respectively.
GST-YTHDC1, GST-YTHDF1, GST-YTHDF2, and GST-YTHDF3 were purified as previously reported. The HTRF assay was assembled as detailed in ref with the only difference being that the starting concentration of the dose–response experiments used for the IC50 determination was variated dependently from the tested compound. The same protocol was applied to the four proteins. The competitive inhibition data of GST-YTHDF1 (single dose experiment at 100 μM compound concentration and dose–response curves), GST-YTHDF3 (single dose experiment at 100 μM compound concentration and dose–response curves), and GST-YTHDF2 (single dose experiment at 100 μM compound concentration) were normalized as described in ref to mitigate interference. The signal was measured as described in ref .

| Compound | Single-dose residual signal at 100 µM, DF2 [1] [%] | LE (ligand efficiency, DF2) [1] | IC50 [1] [µM] | Kd [2] | Selectivity DF2 over DC2 (Kd ratio DC2/DF2) [2] | Single-dose residual signal at 100 µM, DF1 ([3]; HTRF) [%] | Improvement of HTRF IC50 compared to fragment 14 [1] | IC50 [3] [µM] | Potency for DF2 relative to 6-cyclopropyluracil ([1]; HTRF IC50 values) [factor] | Residual signal DF1 at highest concentration ([3]; HTRF, 62.5 μM compound) [%] |
| --- | --- | --- | --- | --- | --- | --- | --- | --- | --- | --- |
| O=c1[nH]c(=S)[nH]c2sccc12 [Compound 14] | 8 | 0.60 kcal/(mol HAC) | 18 | 88 µM | ~20 fold | 15 | – | – | – | – |
| COC(=O)c1ccc(-c2csc3[nH]c(=S)[nH]c(=O)c23)cc1 [Compound 17] | 4 | 0.35 kcal/(mol HAC) | 4.7 | 6.3 µM | – | 7 | 3 fold | 10 | – | – |
| O=C(O)c1ccc(-c2csc3[nH]c(=S)[nH]c(=O)c23)cc1 [Compound 18] | 4 | 0.36 kcal/(mol HAC) | 5.4 | 7.7 µM | – | 3 | 3 fold | 11 | – | – |
| O=c1[nH]c(=S)[nH]c2scc(-c3ccc(O)cc3)c12 [Compound 19] | 5 | 0.34 kcal/(mol HAC) | 32 | 40 µM | – | 8 | – | – | – | – |
| CC(=O)c1sc2[nH]c(=S)[nH]c(=O)c2c1C [Compound 20] | 3 | 0.45 kcal/(mol HAC) | 13 | 46 µM | – | 8 | – | – | – | – |
| CCOC(=O)c1sc2[nH]c(=S)[nH]c(=O)c2c1C [Compound 21] | 5 | 0.42 kcal/(mol HAC) | 6.3 | 230 µM | – | 12 | – | – | – | – |
| Cc1c(C(=O)NCc2ccccc2)sc2[nH]c(=S)[nH]c(=O)c12 [Compound 22] | 5 | 0.31 kcal/(mol HAC) | 10 | 270 µM | – | 17 | – | – | – | – |
| Cc1c(C(=O)NCc2cccnc2)sc2[nH]c(=S)[nH]c(=O)c12 [Compound 23] | 9 | 0.31 kcal/(mol HAC) | 11 | > 400 µM and 450 µM | about 350 fold | 20 | – | > 60 | 15 | 51 |
| Cc1c(C(=O)NCc2cccc(C(=O)O)c2)sc2[nH]c(=S)[nH]c(=O)c12 [Compound 24] | 3 | 0.26 kcal/(mol HAC) | 20 | 41 µM | – | 5 | – | – | – | – |
| Cc1c(C(=O)NCCCC(=O)O)sc2[nH]c(=S)[nH]c(=O)c12 [Compound 25] | 7 | 0.32 kcal/(mol HAC) | 14 | 130 µM | – | 6 | – | – | – | – |
| Cc1c(-c2ccc([N+](=O)[O-])cc2)sc2[nH]c(=S)[nH]c(=O)c12 [Compound 26] | 7 | 0.35 kcal/(mol HAC) | 4.9 | 35 µM | – | 12 | 3- to 4 fold | – | – | – |
| Cc1c(-c2ccc(N)cc2)sc2[nH]c(=S)[nH]c(=O)c12 [Compound 27] | 0 | 0.39 kcal/(mol HAC) | 3.9 | 30 µM | – | 6 | 3- to 4 fold | 13 | – | – |
| NC(=O)c1csc2[nH]c(=S)[nH]c(=O)c12 [Compound 31] | 13 | 0.47 kcal/(mol HAC) | 14 | 18 µM | – | 27 | – | – | – | – |
| O=c1[nH]c(=S)[nH]c2scc(-c3ccc(Br)cc3)c12 [Compound S75] | 4 | – | 27 | 37 µM | – | 9 | – | – | – | – |
| COc1ccc(-c2csc3[nH]c(=S)[nH]c(=O)c23)cc1 [Compound S76] | 6 | – | 24 | 54 µM | – | 12 | – | – | – | – |
| O=c1[nH]c(=S)[nH]c2scc(C3CCCCC3)c12 [Compound S77] | 12 | – | 33 | 240 µM | – | 32 | – | – | – | – |
| O=c1[nH]c(=S)[nH]c2sc(Cc3ccccc3)cc12 [Compound S85] | 13 | – | 33 | 160 µM | – | 34 | – | – | – | – |
| CCOC(=O)c1csc2[nH]c(=S)[nH]c(=O)c12 [Compound S89] | 8 | – | 62 | 450 µM and > 400 µM | – | 16 | – | – | – | – |
| O=C(O)c1csc2[nH]c(=S)[nH]c(=O)c12 [Compound S90] | 14 | – | 60 | 240 µM | – | 36 | – | – | – | – |
